What was measured:
Immature rats = assay: In vivo uterotropic activity; details: for Uterine Weight (mg) ± SD: immature rats; for estrogenic activity in vivo (in words): uterine stimulation compared with vehicle
[1] = target: T1, human estrogen receptor (hER-α) (Homo sapiens, UniProt P03372); assay: Estrogen receptor binding, whole cell test procedure; details: Ki of 5B estimated
T1 sequence (P03372 1-595): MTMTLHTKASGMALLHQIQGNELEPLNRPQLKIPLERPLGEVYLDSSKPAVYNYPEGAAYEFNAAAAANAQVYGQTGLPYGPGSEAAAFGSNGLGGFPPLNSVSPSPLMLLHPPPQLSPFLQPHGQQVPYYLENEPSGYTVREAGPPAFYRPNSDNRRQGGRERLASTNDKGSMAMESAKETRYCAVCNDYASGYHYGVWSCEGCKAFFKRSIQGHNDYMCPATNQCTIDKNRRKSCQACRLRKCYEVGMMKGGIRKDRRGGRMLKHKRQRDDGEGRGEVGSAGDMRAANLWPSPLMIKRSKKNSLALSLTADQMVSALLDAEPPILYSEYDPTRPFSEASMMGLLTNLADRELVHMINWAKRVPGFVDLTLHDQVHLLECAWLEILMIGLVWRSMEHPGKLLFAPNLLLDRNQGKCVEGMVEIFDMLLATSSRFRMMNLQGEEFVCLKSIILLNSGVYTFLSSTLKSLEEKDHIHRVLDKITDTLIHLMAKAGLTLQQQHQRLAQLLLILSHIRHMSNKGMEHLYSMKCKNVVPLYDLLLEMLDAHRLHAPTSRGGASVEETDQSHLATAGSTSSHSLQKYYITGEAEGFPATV

SMILES | Uterine Weight (mg) ± SD (Immature rats; 1 μg, three days S.C.) [mg] | Uterine Weight (mg) ± SD (Immature rats; 10 μg, three days S.C.) [mg] | Uterine Weight (mg) ± SD (Immature rats; 100 μg, three days S.C.) [mg] | Uterine Weight (mg) ± SD (Immature rats; 500 μg, three days S.C.) [mg] | estrogenic activity in vivo (in words) (Immature rats) | further results
C[C@]12CC[C@H]3C(=CCC4=C3CC[C@@H](O)C4)[C@@H]1CCC2=O [5A, estra-5(10),7-dien-3α-ol-17-one] | 28.7 ± 2.7 | 33.3 ± 4.4 | 66.5 ± 4.7 | 78.9 ± 13.6 | significant estrogenic activity | estimated EC50 compared with 5B (Immature rats; in words, relative to approximately 30 μg/rat or 0.6 mg/kg for 5B): somewhat lower
C[C@]12CC[C@H]3C(=CCC4=C3CC[C@H](O)C4)[C@@H]1CCC2=O [5B, estra-5(10),7-dien-3β-ol-17-one] | 31.7 ± 6.6 | 43.5 ± 6.9 | 79.7 ± 5.8 | 82.6 ± 8.6 | significant estrogenic activity | Uterine Weight (mg) ± SD (Immature rats; 0.1 μg, three days S.C.): 34.1 ± 6.2 mg
C#C[C@]1(O)CC[C@H]2[C@@H]3CCc4cc(O)ccc4[C@H]3CC[C@@]21C [Ethinyl Estradiol, ethinyl estradiol, reference compound] | – | – | – | – | – | Uterine Weight (mg) ± SD (Immature rats; 0.5 μg, three days, positive control): 101.2 ± 2.8 mg
C[C@]12CCc3c(ccc4cc(O)ccc34)[C@@H]1CCC2=O [equilenen] | – | – | – | – | – | Ki [1]: 375 nM
C[C@]12CC[C@@H]3c4ccc(O)cc4CC[C@H]3[C@@H]1CCC2=O [estrone, reference compound] | – | – | – | – | – | EC50 estimated (Immature rats; in similar test procedures): 0.2 mg/kg

From patent US6458778B1, “Estradienes” (Wyeth, priority 1997, dated 2002)
